Data taken from patent US20170035894A1, “DRUG DELIVERY CONJUGATES FOR TREATING RESISTANT CANCER AND FOR USE IN COMBINATION THERAPY” (ENDOCYTE, INC., priority 2014, published 2017).
Like-named read-outs stand apart in the source and are kept apart here.

How the values were obtained:
KB cells = format: cell-based, human
Procedure: METHOD. Inhibition of Cellular DNA Synthesis. The compounds described herein were evaluated using an in vitro cytotoxicity assay that predicts the ability of the drug to inhibit the growth of folate receptor-positive cells, such as KB cells, RAW264.7 macrophages, and the like. It is to be understood that the choice of cell type can made on the basis of the susceptibility of those selected cells to the drug that forms the conjugate. The test compounds were comprised of folate linked to a respective chemotherapeutic drug, as prepared according to the processes described herein. The test cells were exposed to varying concentrations of folate-drug conjugate, and also in the absence or presence of at least a 100-fold excess of folic acid to assess activity as being specific to folate receptor mediation.
Conjugates of cytotoxic drugs described herein are active against KB cells. The activity is mediated by the folate receptor as indicated by competition experiments using co-administered folic acid. KB cells were exposed for up to 7 h at 37° C. to the indicated concentrations of folate-drug conjugate in the absence or presence of at least a 100-fold excess of folic acid. The cells were then rinsed once with fresh culture medium and incubated in fresh culture medium for 72 hours at 37° C. Cell viability was assessed using a ^3H-thymidine incorporation assay. For compounds described herein, dose-dependent cytotoxicity was generally measurable, and in most cases, the IC50 values (concentration of drug conjugate required to reduce ^3H-thymidine incorporation into newly synthesized DNA by 50%) are in the low nanomolar range.
METHOD. In vitro activity against various cancer cell lines. IC50 values were generated for various cell lines. Cells were heavily seeded in 24-well Falcon plates and allowed to form nearly confluent monolayers overnight. Thirty minutes prior to the addition of the test compound, spent medium was aspirated from all wells and replaced with fresh folate-deficient RPMI medium (FFRPMI). A subset of wells were designated to receive media containing 100 μM folic acid. The cells in the designated wells were used to determine the targeting specificity. Without being bound by theory it is believed herein that the cytotoxic activity produced by test compounds in the presence of excess folic acid, i.e. where there is competition for FR binding, corresponds to the portion of the total activity that is unrelated to FR-specific delivery. Following one rinse with 1 mL of fresh FFRPMI containing 10% heat-inactivated fetal calf serum, each well received 1 mL of medium containing increasing concentrations of test compound (4 wells per sample) in the presence or absence of 100 μM free folic acid as indicated. Treated cells were pulsed for 2 h at 37° C., rinsed 4 times with 0.5 mL of media, and then chased in 1 mL of fresh medium up to 70 h. Spent medium was aspirated from all wells and replaced with fresh medium containing 5 μCi/mL ^3H-thymidine. Following a further 2 h 37° C. incubation, cells were washed 3 times with 0.5 mL of PBS and then treated with 0.5 mL of ice-cold 5% trichloroacetic acid per well. After 15 min, the trichloroacetic acid was aspirated and the cell material solubilized by the addition of 0.5 mL of 0.25 N sodium hydroxide for 15 min. A 450 μL aliquot of each solubilized sample was transferred to a scintillation vial containing 3 mL of Ecolume scintillation cocktail and then counted in a liquid scintillation counter. Final results are expressed as the percentage of ^3H-thymidine incorporation relative to untreated controls.

KB tumors = test: Inhibition of tumor growth, s.c. KB tumors; format: in vivo, nu/nu mice; set-up: key to In vivo activity (e): CR=complete response, where tumor volume, as defined herein, during the observation period was zero for all test animals in the group; details: for CR (%) / Cures (%) / PR (%): TIW
Procedure: METHOD. Inhibition of Tumor Growth in Mice. Four to seven week-old mice (Balb/c or nu/nu strains) were purchased from Harlan Sprague Dawley, Inc. (Indianapolis, Ind.). Normal rodent chow contains a high concentration of folic acid (6 mg/kg chow); accordingly, test animals were maintained on a folate-free diet (Harlan diet #TD00434) for about 1 week before tumor implantation to achieve serum folate concentrations close to the range of normal human serum, and during the Method. For tumor cell inoculation, 1×10^6 M109 cells (a syngeneic lung carcinoma) in Balb/c strain, or 1×10^6 KB cells in nu/nu strain, in 100 μL were injected in the subcutis of the dorsal medial area (right axilla). Tumors were measured in two perpendicular directions every 2-3 days using a caliper, and their volumes were calculated as 0.5×L×W^2, where L=measurement of longest axis in mm and W=measurement of axis perpendicular to L in mm.
Dosing solutions were prepared fresh each day in PBS and administered through the lateral tail vein of the mice.
Tumor implantation. KB tumor cells were grown in folate-deficient RPMI 1640 with 5% FBS at 37° C. in a 5% CO2 humidified atmosphere. KB (1×10^6 cells per animal) tumor cells were inoculated subcutaneously […] post start of the folate deficient diet. Mice were dosed after the tumors reached between 100-150 mm3.
Preparation of dosing drug solutions. Dosing solutions were prepared when dosing began by weighing appropriate amounts of each compound, reconstituting in PBS, pH 7.4, sterile filtering the drug solution through a 0.22 µm PVDF syringe filter, and freezing aliquots for each day of dosing at −20° C.
Evaluation. Tumor size was monitored and body weight measured 3 times/week. Attention was given to gross animal morphology and behavior. Euthanasia was performed if the mice lost >20% of weight or when the tumors reached a size of 1500 mm3. Euthanasia was also performed at the researcher's discretion if mice lost a lot of weight in a short duration or when mice were approaching moribund conditions. Blood samples were collected by cardiac puncture from all viable animals from selected cohorts. Heart, lungs, liver, spleen, kidney, intestines, bone, brain and muscle were obtained immediately after euthanasia. The tissues were removed and stored in 10% neutral-buffered formalin.
For example, a 50% decrease in tumor volume from the initial measurement represents a partial response.
For example, a decrease in tumor volume where the measurements in two perpendicular directions are each about 2 mm or less represents a complete response.

[1] = difference in IC50 between competed and non-competed group

SMILES: CCCC(=O)OCN(C(=O)[C@@H](NC(=O)[C@H]1CCCCN1C)C(C)CC)[C@H](C[C@@H](OC(C)=O)c1nc(C(=O)N[C@@H](Cc2ccc(O)cc2)C[C@H](C)C(=O)NNC(=O)OCCSSC[C@@H](NC(=O)[C@H](CCC(=O)NC[C@H](O)[C@@H](O)[C@H](O)[C@H](O)CO)NC(=O)[C@@H](CCC(=O)O)NC(=O)[C@H](CCC(=O)NC[C@H](O)[C@@H](O)[C@H](O)[C@H](O)CO)NC(=O)[C@@H](CCC(=O)O)NC(=O)[C@H](CCC(=O)NC[C@H](O)[C@@H](O)[C@H](O)[C@H](O)CO)NC(=O)CC[C@@H](NC(=O)c2ccc(NCc3cnc4nc(N)[nH]c(=O)c4n3)cc2)C(=O)O)C(=O)O)cs1)C(C)C (stereo in doubt) [EC1456]
- IC50 (KB cells; FR expression +++, read-out: Activity (IC50)): 2.3 nM
- IC50 (KB cells; IC50 when competed with excess folic acid, read-out: 50% competition (nM) (c)): 1420 nM
- IC50 (KB cells; as determined by thymidine incorporation, read-out: In vitro IC50 (nM) (b)): 1.5 nM
- In vitro specificity (fold) (d) (KB cells; [1]): 944 fold
- specificity for the folate receptor as determined by folic acid competition (KB cells; [1]): ca. 1000 fold
- Competable up to 100 nM (KB cells; folic acid competition): Yes
- improvement in specificity compared to comparator compound EC0531 (KB cells; folic acid competition): 4 fold
- CR (%) (KB tumors; 0.5 μmol/kg, 3 weeks): 0%
- Cures (%) (KB tumors; 0.5 μmol/kg, 3 weeks): 0%
- PR (%) (KB tumors; 0.5 μmol/kg, 3 weeks): 60%
- CR (%) (KB tumors; 0.67 μmol/kg, 2 weeks): 20%
- Cures (%) (KB tumors; 0.67 μmol/kg, 2 weeks): 0%
- PR (%) (KB tumors; 0.67 μmol/kg, 2 weeks): 60%
- CR (%) (KB tumors; 1.0 μmol/kg, 2 weeks): 60%
- Cures (%) (KB tumors; 1.0 μmol/kg, 2 weeks): 60%
- PR (%) (KB tumors; 1.0 μmol/kg, 2 weeks): 40%
- CR (%) (KB tumors; 2.0 μmol/kg, 2 weeks): 100%
- Cures (%) (KB tumors; 2.0 μmol/kg, 2 weeks): 100%
- PR (%) (KB tumors; 2.0 μmol/kg, 2 weeks): 0%
- efficacy of co-administration of EC1456 and carboplatin and paclitaxel (KB tumors; EC1456 1 μmol/kg BIW×2 + carboplatin 30 mg/kg BIW×2 + paclitaxel 10 mg/kg BIW×2): enhanced technical effect over EC1456 alone and the combination of carboplatin with paclitaxel
- efficacy of co-administration of EC1456 and cisplatin (KB tumors; EC1456 1 μmol/kg BIW×2 + cisplatin 3 mg/kg BIW×3): enhanced technical effect over both monotherapies
- efficacy of EC1456 alone compared to cisplatin (KB tumors; EC1456 1 μmol/kg BIW×2 vs cisplatin 3 mg/kg BIW×3): improved efficacy over cisplatin
- efficacy of co-administration of EC1456 and bevacizumab (KB tumors; EC1456 1 μmol/kg TIW×2 + avastin 5 mg/kg BIW×2): enhanced technical effect over both monotherapies
- efficacy of EC1456 alone compared to bevacizumab (KB tumors; EC1456 1 μmol/kg TIW×2 vs avastin 5 mg/kg BIW×2): improved efficacy over bevacizumab
- cures, % of the mice (KB tumors; EC1456 added to the carboplatin/paclitaxel combination): 100%
- PR's (KB tumors; EC1456 alone 1 μmol/kg twice a week for 2 weeks): 20%
- efficacy of co-administration of EC1456 and topotecan (KB tumors; P-1606 KB tumors, EC1456 1 μmol/kg BIW×2 + topotecan 5 mg/kg BIW×2): enhanced technical effect over both monotherapies
- efficacy of EC1456 alone compared to topotecan (KB tumors; P-1606 KB tumors, EC1456 1 μmol/kg BIW×2 vs topotecan 5 mg/kg BIW×2): improved efficacy over topotecan
- efficacy of co-administration of EC1456 and docetaxel (KB tumors; P-1609 KB tumors, EC1456 1 μmol/kg TIW×5 + docetaxel 7 mg/kg BIW×3): enhanced technical effect over both monotherapies
- efficacy of co-administration of EC1456 and topotecan (KB tumors; P-1609 KB tumors, EC1456 1 μmol/kg TIW×5 + topotecan 5 mg/kg TIW×5): enhanced technical effect over both monotherapies
- efficacy of EC1456 alone compared to docetaxel (KB tumors; P-1609 KB tumors, EC1456 1 μmol/kg TIW×5 vs docetaxel 7 mg/kg BIW×3): improved efficacy over docetaxel
- efficacy of EC1456 alone compared to topotecan (KB tumors; P-1609 KB tumors, EC1456 1 μmol/kg TIW×5 vs topotecan 5 mg/kg TIW×5): improved efficacy over topotecan
- efficacy of co-administration of EC1456 and carboplatin (KB tumors; P-1635 KB tumors, EC1456 1 μmol/kg TIW + carboplatin 50 mg/kg TIW): enhanced technical effect over both monotherapies
- efficacy of EC1456 alone compared to carboplatin (KB tumors; P-1635 KB tumors, EC1456 1 μmol/kg TIW×2 vs carboplatin 50 mg/kg TIW): improved efficacy over carboplatin
- specific activity mediated by the folate receptor (KB tumors; co-dosed with excess comparator compound EC0923 (50 or 100 μmol/kg)): competable
- anti-tumor activity / response (KB tumors; human KB tumors in mice, conjugated vs unconjugated drugs): dose responsive anti-tumor activity
- complete response, test animals (KB tumors; intravenously 1 μmol/kg TIW, 2 wk): 4/4
- In vivo activity (e) (KB tumors; subcutaneous KB tumor in nu/nu mice): CR
